The results in this text go back to US8055452B2, “Identification, monitoring and treatment of disease and characterization of biological condition using gene expression profiles” (Life Technologies Corporation, priority 2001, dated 2011).

This test concerns Inflammation 48A and 48B loci; bacterial Gene Expression Panel of 24 genes. Description: Whole blood gene expression response to infectious agents or their products. The following applies: E. coli filtrate with added polymyxin B vs filtrate alone. Type of test: cell-based. The text has this:
FIGS. 27 through 41 illustrate the use of gene expression panels in early identification and monitoring of infectious disease. These figures plot the response, in expression products of the genes indicated, in whole blood, to the administration of various infectious agents or products associated with infectious agents. In each figure, the gene expression levels are “calibrated”, as that term is defined herein, in relation to baseline expression levels determined with respect to the whole blood prior to administration of the relevant infectious agent. […] The concentration change is shown ratiometrically, and the baseline level of 1 for a particular gene locus corresponds to an expression level for such locus that is the same, monitored at the relevant time after addition of the infectious agent or other stimulus, as the expression level before addition of the stimulus. […]
FIG. 27 uses a novel bacterial Gene Expression Panel of 24 genes, developed to discriminate various bacterial conditions in a host biological system. […] The final concentration immediately after administration of the stimulus was 100 ng/mL, and the ratiometric changes in expression, in relation to pre-administration levels, were monitored for each stimulus 2 and 6 hours after administration. […]
The responses were monitored at 2, 6, and 24 hours after administration. […]

With polymyxin B, the “effect on the response of IL1B locus to E. coli filtrate” value is reported as “did not affect the response”.
